The results in this text go back to patent publication US20260358340A1, “MATRIX METALLOPROTEINASE 13 SENSITIVE PEPTIDES AND SENSORS” (Julius-Maximilians-Universitaet Wuerzburg, priority 2023, published 2026).

Each structure is given as a SMILES string.

Holding throughout (assay type): biochemical
Holding throughout (conditions): role: inhibitor; substrate FRET peptide

Experiment [1] addresses MMP13 (Homo sapiens, UniProt P45452). The experiment is described as follows: FRET peptide cleavage assay, MMP13 activity and its inhibition. The text has this: (§1) A possible application of the peptides is the analysis of protease activity and the effect of substances on it. This can be utilized for understanding the role of proteases in physiological and pathological processes as well as for targeting proteases for disease diagnosis or treatment. […] 7-Methoxycoumain-4-acetic acid (Mca) is a is a fluorescent dye with an excitation peak at 322 nm and an emission peak at 381 nm. The absorbance spectrum of 2,4-dinitrophenyl (Dnp) overlaps with the emission spectrum of Mca, therefore it acts as a quencher. As long as both are in close proximity (up to about 5-10 nm), excitation of Mca leads to energy transfer to Dnp. Separation of the fluorophore-quencher pair by hydrolysis of the protease-specific cleavage site between both compounds liberates the fluorescence signal and the rise in its intensity can easily be monitored overtime.

Experiment [2] addresses MMP8 (Homo sapiens, UniProt P22894). In words: FRET peptide cleavage assay, MMP8 activity and its inhibition.
From the text: as §1, with “overtime. This method is sensitive and time efficient. It allows quantitative assessment of enzymatic activity and the developed fluorogenic substrates are suitable for high throughput screening, for example of protease inhibitors.” for “overtime.”

Experiment [3] has as its target MMP9 (Homo sapiens, UniProt P14780). In words: FRET peptide cleavage assay, MMP9 activity and its inhibition.
From the text: as §1, with “overtime. This method is sensitive and time efficient. It allows quantitative assessment of enzymatic activity and the developed fluorogenic substrates are suitable for high throughput screening, for example of protease inhibitors.” for “overtime.”

Chain of MMP9 (P14780 94-707): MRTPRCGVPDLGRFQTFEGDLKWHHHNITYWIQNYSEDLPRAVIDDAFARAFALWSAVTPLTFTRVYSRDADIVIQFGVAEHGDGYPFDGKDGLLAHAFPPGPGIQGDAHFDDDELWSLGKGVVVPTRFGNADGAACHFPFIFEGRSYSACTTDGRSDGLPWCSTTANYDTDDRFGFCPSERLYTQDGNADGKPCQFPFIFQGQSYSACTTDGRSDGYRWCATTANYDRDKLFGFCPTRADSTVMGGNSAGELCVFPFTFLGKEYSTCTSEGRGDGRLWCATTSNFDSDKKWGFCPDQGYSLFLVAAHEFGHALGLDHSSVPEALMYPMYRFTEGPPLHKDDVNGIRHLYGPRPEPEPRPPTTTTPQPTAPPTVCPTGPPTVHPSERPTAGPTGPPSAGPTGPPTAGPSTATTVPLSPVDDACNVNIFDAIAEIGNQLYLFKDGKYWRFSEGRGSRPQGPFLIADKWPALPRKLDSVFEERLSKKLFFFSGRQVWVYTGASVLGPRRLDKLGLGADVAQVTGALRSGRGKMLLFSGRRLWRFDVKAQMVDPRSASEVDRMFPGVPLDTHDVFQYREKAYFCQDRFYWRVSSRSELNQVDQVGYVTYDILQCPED
Chain of MMP8 (P22894 101-467): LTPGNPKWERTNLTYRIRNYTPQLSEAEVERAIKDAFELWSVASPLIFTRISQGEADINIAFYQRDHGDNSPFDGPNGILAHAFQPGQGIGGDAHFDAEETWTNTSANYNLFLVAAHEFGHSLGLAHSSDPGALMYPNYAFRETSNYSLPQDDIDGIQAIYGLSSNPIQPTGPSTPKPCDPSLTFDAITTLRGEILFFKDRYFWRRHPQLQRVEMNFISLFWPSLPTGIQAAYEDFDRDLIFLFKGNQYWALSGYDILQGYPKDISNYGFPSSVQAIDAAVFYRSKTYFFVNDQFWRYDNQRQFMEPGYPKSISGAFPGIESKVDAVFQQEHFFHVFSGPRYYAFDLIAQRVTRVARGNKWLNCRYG

Consider `O=C(O)CN(CCN(CC(=O)O)CC(=O)O)CC(=O)O` [EDTA], for which, in experiment [1], the “loss of MMP13 activity” value is on record as “complete loss”. For the same compound, the “loss of MMP8 activity” value in experiment [2] is reported as “complete loss”. In addition, the “loss of MMP9 activity” value in experiment [3] is “complete loss”.
Regarding `CNC(=O)[C@@H](NC(=O)[C@H](CC(C)C)[C@H](O)C(=O)NO)C(C)(C)C` [Marimastat], the “loss of MMP8 activity” value in experiment [2] is given as “complete loss”. For the same compound, in experiment [3], the “loss of MMP9 activity” value was “complete loss”.
`CCCCCCCCCCCCOS(=O)(=O)[O-].[Na+]` [SDS]: the “loss of MMP13 activity” value in experiment [1] is listed as “complete loss”. The “loss of MMP8 activity” value in experiment [2] is recorded as “complete loss”. The “loss of MMP9 activity” value in experiment [3] is “complete loss”.
